# Data as given in a melting point compilation (Tetko et al.; mined from patent text by program, amines drawn as free bases though some values may be those of a salt).
row,melting point [°C],Compound
1,219,CCOC(=O)c1c(Cl)c2cnccc2[nH]c1=O
2,208 to 211,CC(C)CN1C(=O)C(C)(C)C(=O)Nc2ccc(C=O)cc21
3,97 to 100,COc1cc(C)c2c(Cl)c(OC)ccc2n1
4,256 to 257,O=c1[nH]c(=Cc2ccco2)c(=O)[nH]c1=Cc1ccc(OCc2ccccc2)cn1
5,139 to 140,COC(=O)C=Cc1ccc(O)cc1
6,264 to 266,COc1ccc(-c2cc(C(=O)O)cc3ccc4c(c23)OCO4)cc1
7,108 to 109,CC(C)(C)OC(=O)NCCNC(=O)c1cccc(Br)n1
8,119 to 120,CC1c2ccccc2C=Cn2c1n[nH]c2=O (stereo unspecified)
9,168 to 169,CN1C(=O)C(=O)c2cc([N+](=O)[O-])cc(C(F)(F)F)c21
10,135 to 137,N#Cn1nc(-c2ccccc2)c(=O)cc1I
11,121 to 122,COc1cc(SC#N)cc(C#N)c1N
12,161 to 162,CC(C)n1nc(-c2c(OC3CCC3)nc(N)nc2-c2ccccc2)ccc1=O
13,106 to 107,COCCNC(=O)c1cccc(-c2cccc3cc(Cc4cc(F)cc(C(F)(F)F)c4)sc23)c1
14,42 to 57,CC(C(=O)Oc1cc(=O)n(-c2cccc(C(F)(F)F)c2)c2ncccc12)c1ccccc1 (stereo unspecified)
15,106 to 109,C#CCN1C(=O)C2CC2(c2ccc(N)cc2)C1=O (stereo unspecified)
16,274 to 276,COc1cc2c(cc1Br)C(=CNc1ccc(N3CCN(C)CC3)cc1)C(=O)NC2=O
17,161 to 164,COC[C@H]1CCCN1S(=O)(=O)c1ccc2c(c1)C(=O)C(=O)N2
18,71 to 72,COC(=O)c1cc2cc(C3OCCO3)ccc2[nH]1
19,102 to 104,CNC(=O)Cc1ccc(CC(=O)O)cc1

row,melting point [°C],Compound
1,77 to 78,C=CC(=O)N1CC(c2ccccc2)c2ccccc21 (stereo unspecified)
2,220 to 221,Cc1c(C)c2c(c(C)c1NC(=O)CC(C)(C)C)C(c1ccc(C(C)C)c(O)c1)CO2 (stereo unspecified)
3,64.6 to 67.6,Oc1ccc2nc(SCCC(F)C(F)(F)Br)oc2c1 (stereo unspecified)
4,134 to 136,Cn1c(CC#N)ccc1C(=O)c1ccc(F)cc1
5,178 to 180,CS(=O)(=O)c1ccc(-c2cnn(-c3ccc(F)c(F)c3)c(=O)c2Oc2ccc(F)cc2)cc1
6,121 to 122,COc1ccc2c(n1)CC(=O)N2CCCO
7,225 to 227,Cc1cccc(C(=O)Nc2c[nH]nc2C(=O)NCCC#N)n1
8,114 to 116,CNC=C(C(=O)C=Cc1ccc(Cl)cc1)C(=O)OC
9,94 to 95,OCc1coc(/C=C/c2ccccc2)n1
10,138 to 140,COc1cccc(C2(COc3cccc4cc(NS(=O)(=O)C(F)(F)F)ccc34)N=CNO2)c1 (stereo unspecified)
11,> 300,Cc1ccc(-n2c(=O)c(O)nc3cccnc32)cc1
12,267 to 272,CN1CCN(C(=O)Nc2ccc3c(c2)NC(=O)/C3=C\c2ccc[nH]2)C1=O
13,175 to 176,COc1cc(C)c(O)c(C(=O)NCCc2ccc(N=C(N)c3cccs3)cc2)c1
14,119 to 120,CN(C)CCOC(=O)c1cnn2c(-c3cccc(C(F)(F)F)c3)ccnc12
15,166 to 167,CN(C)c1ccc2c(c1)C(C)(C)C1(C=Cc3cc([N+](=O)[O-])ccc3S1)N2C (stereo unspecified)
16,126 to 128,Cc1ccc(C(=O)c2cnoc2C2CC2)cc1S(C)(=O)=O
17,101,Cc1c(C)c2ccc(OCCCCCc3ccccc3)cc2oc1=O
18,> 300,O=C(O)c1cc(-c2ccncc2)c[nH]c1=O
19,176,CC(C)(S)[C@@H](NC(=O)c1ccc(Br)cc1)C(=O)O

row,melting point [°C],Compound
1,120,CCCCCS(=O)(=O)NC(=O)CCc1ccc(OC(C)C)cc1OCc1ccc(Cl)cc1Cl
2,143,CC1(C(=O)CC(=O)c2ccc(S(C)(=O)=O)c(Cl)c2Cl)CC1
3,130 to 132,CC(C)Oc1cc(/C=C/C(=O)O)n(Cc2ncc(C(F)(F)F)cc2Cl)n1
4,109 to 111,O=C(NCCCc1c[nH]c2ccc(OCc3ccc4ccccc4n3)cc12)OCc1ccccc1
5,248 to 250,Cc1cccc(-c2cnc3c(N)ncnc3n2)c1
6,185 to 188,O=C1CCC2N1CC(=O)N2c1ccccc1 (stereo unspecified)
7,139 to 141,C=CCOc1ccccc1N(CC(O)CNC(C)C)S(C)(=O)=O (stereo unspecified)
8,193 to 194,COc1cc(C(C)C)c2c(c1)S(=O)(=O)N(COc1cc(C(=O)O)nn1-c1ccccc1)C2=O
9,149 to 150,Cc1ccc(N2C(=O)CN3C(=O)CC[C@@H]32)cc1
10,139 to 142,CCCOCCOc1ccc(-c2ccc3c(c2)C=C(C(=O)O)CCN3Cc2ccccc2)cc1
11,68 to 69,COCOc1ccc([N+](=O)[O-])c(C=O)c1
12,97 to 99,CC(C)(C)OC(=O)NCCn1cc(C#N)c(-c2cccc(F)c2)c1Cl
13,122 to 123,CN(CC(O)(CO)c1ccccc1)S(=O)(=O)c1ccc(Cl)cc1 (stereo unspecified)
14,167 to 169,COc1ccc(CSc2cccc(C(=O)Nc3ccc(C#N)cc3)c2)cc1
15,81.5,Cc1ccccc1C=C(C#N)C=O
16,95 to 97,COc1ccc(-c2ccc3nnc(-c4ccccc4OC)n3n2)cc1OC
17,116 to 119,CC(C)N(CCC1(c2ccccc2Cl)CC(=O)NC1=O)C(C)C (stereo unspecified)
18,115 to 117,CCCCNCc1cn(CCC(=O)NC(C)(C)c2ccc(Cl)cc2)cn1
19,77 to 78,CC(C)(O)[C@@H](N)c1ccc2ccccc2c1

# Second part, the compound before the results:
row,Compound,melting point [°C]
1,CSc1nccc(-c2ccc(NC(=O)c3cc(F)cc(N4CCOCC4)c3)c3ccccc23)n1,135 to 138
2,Cc1cc(C#N)cc(CBr)c1,80 to 81
3,COc1c(C2CCN(CCCCNC(=O)c3ccc(-c4ccc(Cl)cc4)c(OCC(N)=O)c3)CC2)ccc2c1CCCC2,198
4,CN1Cc2c(-c3noc(CN4CC=CC4)n3)ncn2-c2ccccc2C1=O,215 to 220
5,NC1=C2C(=Nc3ccccc3S2(=O)=O)c2ccccc2C1=O,264 to 266
6,CC1(C)C(=O)N(c2ccc(C#N)c(C(F)(F)F)c2)C(=O)N1CCCCO,102 to 103
7,O=C(O)Cc1c(C(=O)O)c2cc(Oc3ccc(C(F)(F)F)cc3)ccc2n1-c1ccc(C2CCNCC2)cc1,256 to 258
8,O=C(O)C1=Cc2cc(Cl)c(Oc3ccccc3Cl)cc2OC1C(F)(F)F (stereo unspecified),199
9,Cc1ccc(Cn2nc(C(=O)O)cc2-c2ccc(Cl)c(C)c2)cc1,180
10,CCCCc1nc2c(C)cnc(C(=O)O)c2n1Cc1ccc(-c2ccccc2-c2nnn[nH]2)cc1,159 to 161
11,COc1ccc(-c2nc(CSCCO)nc3cc(OC)c(OC)cc23)cc1OC,154 to 155
12,Cc1c(C(F)(F)C(F)(F)F)oc2c(Br)cccc12,65
13,CN(C)CCNc1c2c(nc3ccccc13)CCCC2O (stereo unspecified),135 to 138
14,O=C1c2ccccc2CN1CCN1CCC(Cc2c[nH]c3ccc(F)cc23)CC1,175
15,c1ccc(C(c2ccccc2)(c2cncnc2)n2ccnc2)cc1,161
16,O=C(O)c1cccc2c1CCc1ccccc1C2=O,188 to 189
17,CC(C)(C)c1cc(CCC(=O)NCCNc2c(Cl)c(Cl)nc(Cl)c2C#N)cc(C(C)(C)C)c1O,185 to 189
18,CN1C2CCCC1CN(c1ccc(C#Cc3ccc(N)cc3)cc1)C2,191
19,N#Cc1ccc(N(Cc2ccc(OCc3ccccc3)cc2)n2cnnc2)cc1-c1ccc(C(F)(F)F)cc1,173 to 175
20,OCc1ccc(OCc2ccccc2)c2c1OCCO2,106
21,CC(C)N1CCC(C(=O)OC2c3ccccc3C(=O)N2c2ccc3ccc(Cl)nc3n2)CC1 (stereo unspecified),184
22,O=C(O)c1cc[nH]c1Sc1ccc(Cl)cc1Cl,160 to 164

row,Compound,melting point [°C]
1,CCc1nc2c(C)cc(C)nc2n1Cc1ccc(C(C(C)C)C(C)C(=O)O)cc1 (stereo unspecified),84 to 90
2,CCCCCCCCCCCC(=O)c1ccc(-c2ccc(OCC(C)OC(=O)CCCCCC)c(Cl)c2)cc1 (stereo unspecified),43.2 to 43.4
3,CC1=C(C(=O)c2ccc(C(=O)O)cc2)C(=O)C2C=CC=CC2C1=O (stereo unspecified),201
4,CN1C(=O)C(NC(=O)C23CC4CC(CC(C4)C2)C3)N=C(c2ccccc2)c2ccccc21 (racemic),256 to 257
5,O=C(O)c1ccc(N2C(=O)C(=Cc3ccccc3)SC2=S)cc1,298 to 301
6,Clc1nc(-n2cnc(-c3ccccc3)c2-c2ccccc2)c2ccccc2c1-c1ccccc1,195 to 196
7,CCOCC(=NNc1ccc(C(F)(F)F)cc1)C(=O)NCc1ccc(Cl)nc1,98 to 99
8,N=C(N)Nc1nc(CSCCNC=NS(=O)(=O)c2ccc(Br)cc2)cs1,142 to 146
9,C[C@H](c1ccccc1)N1CCO[C@@H](c2ccc(Br)cc2)C1,85 to 87
10,Nc1nc(-c2ccco2)nc2ccccc12,219 to 221
11,CN(C)C=Nc1c(Cl)cc(NCc2ccc(N(C)C)cc2F)cc1Cl,118 to 120
12,CC(c1ccc(Oc2ccc(N)cc2)cc1)(c1ccc(Oc2ccc(N)cc2)cc1)c1ccc(Oc2ccc(N)cc2)cc1,220 to 221
13,Cc1c(C(=O)O)cnn1-c1ccc(C(F)(F)F)cc1,181
14,CN1CCC(c2c[nH]c3cc(F)c(OS(=O)(=O)c4c(F)cccc4F)cc23)CC1,202
15,Nc1c2c(nc3cc(F)ccc13)CCCC2O (stereo unspecified),203 to 206
16,O=c1c2ccccc2nnn1CCN1CC=C(c2c[nH]c3ccccc23)CC1,230
17,Cc1nc2c(N)nc3c(c2n1CCCCS(=O)(=O)c1ccc(F)cc1)CCCC3,159 to 162
18,O=C(Nc1ccccc1)O[C@H]1COC(c2cc3ccccc3[nH]2)=N[C@@H]1c1ccccc1 (racemic),166
19,O=C(CCCCc1ccccc1)NC(C(=O)Nc1n[nH]c(=S)s1)c1ccccc1 (stereo unspecified),210 to 211
20,CCCNC(=O)C1(CCCCc2ccc(N3Cc4ccccc4C3=O)cc2)c2ccccc2-c2ccccc21,147 to 148
21,Cc1ccc(-c2cc(C)c(C(=O)N=C(N)N)cc2S(C)(=O)=O)cc1,222 to 224
22,CC1(C)CCC(C)(C)c2cc(-c3cc4ccc(C(=O)O)cc4o3)ccc21,280
